Experimental data from patent publication EP0442663A1, “Improvements in chemical compounds” (priority 1990, dated 1991).
Several values for one entry are separate records, joined by “and”; a condition that tells them apart may be missing. Equal values may be shown once.

Legend:
[1] = system: HIV-1 (HTLV-IIIB); assay: microbe, parasite or virus in culture; assay type: cell-based; details: for ED50: antiviral activity, MT-4 cells challenged with HIV-1 (HTLV-IIIB) at 100 CCID50, 5 days
Protocol: (§1) The compounds of the invention were tested in a screen by the MTT method (J.Virol. Methods […]: 309-321 [1988]). MT-4 cells (2.5 x 10⁴ / well) were challenged with HIV-1 (HTLV-IIIB) or HIV-2 (LAV-2 ROD) at a concentration of 100 CCID₅₀ and incubated in the presence of various concentrations of the test compounds, which were added immediately after challenge with the virus. After 5 days culture at 37°C in a CO₂ incubator, the number of viable cells was assessed by the MTT (tetrazolium) method. Antiviral activity and cytotoxicity of the compounds are expressed in the table below as ED₅₀ (ug/ml) and CD₅₀ (ug/ml), respectively. The potential therapeutic usefulness was assessed by calculating a Selectivity Index (SI) corresponding to the ratio of CD₅₀ to ED₅₀. A control test was performed using the known anti-HIV treatment AZT, and a comparison compound HPA-23 was also run through the screen as detailed below. In the table below, the compounds screened were […]

[2] = system: HIV-2 (LAV-2 ROD); assay: MTT method anti-HIV screen in MT-4 cells, HIV-2 challenge; assay type: cell-based; details: antiviral activity, MT-4 cells challenged with HIV-2 (LAV-2 ROD) at 100 CCID50, 5 days
Protocol: as §1

[3] = system: MT-4 cells; assay: Cytotoxicity by MTT method; assay type: cell-based; details: 5 days
Protocol: as §1

[4] = system: herpes virus; details: from JP 64-38,022; cited from earlier work
[5] = Cytotoxicity by MTT method; assay type: cell-based; details: human, MT-4 cells, 5 days, read-out: CD50
Protocol: as §1

[6] = system: HIV; details: reported in Chemical and Engineering News, December 1986; cited from earlier work
[7] = in vivo; cited from earlier work
[8] = value printed in the HIV-1 line
[9] = value printed in the HIV-2 line
[10] = value printed in the HIV-1 line, 7200 min
[11] = value printed in the HIV-2 line, 7200 min

| Molecule | ED50 [1] [µg/mL] | ED50 [2] [µg/mL] | CD50 [3, 8] [µg/mL] | CD50 [3, 9] [µg/mL] | further results |
| --- | --- | --- | --- | --- | --- |
| K10[P2W18Zn4(H2O)2O68] [B] | 0.71 | 18.03 | 466.3 | 441.9 |  |
| K₇PW₁₀Ti₂O₄₀ |  |  |  |  | activity against herpes virus [4]: have activity against herpes virus |
| Na12[P4W14O58] [F] | 4.82 | 13.26 | 655.8 | 682.8 |  |
| Na7[PrW10O35] [C] | 1.86 | 2.70 | 761.8 | 221.7 |  |
| (NH₄)₁₇H[NaSb₉W₂₁O₈₆] [HPA 23, reference compound] | 2.8 | >4 | 7.4 | 2.4 |  |
| K9Li[P2W17O62] [E] | 2.92 | 7.28 | 502.9 | 429.7 |  |
| K12[H2P2W12O48] [A] | 0.089 | 0.153 | 721.0 | 675.9 |  |
| Reduced form of K₆[P₂W₁₂Mo₆O₆₂] [Example 12] |  |  |  |  | ED50 ([1]; 7200 min): 4.1 µg/mL and 5.8 µg/mL; ED50 ([2]; 7200 min): 1.8 µg/mL and 1.4 µg/mL; CD50 [3, 10]: 234.0 µg/mL and 300.0 µg/mL; CD50 [3, 11]: 315.0 µg/mL and 306.0 µg/mL |
| K10[P2W18Co4(H2O)2O68] | 1.47 | 12.26 | 84.8 | 81.6 |  |
| (NH₄)₁₂[H₂P₂W₁₂O₄₈].16H₂O [Example 7] |  |  |  |  | CD50 [3, 10]: >500.0 µg/mL and 304.0 µg/mL; CD50 [3, 11]: 346.0 µg/mL and 286.0 µg/mL |
| Cc1cn([C@H]2C[C@H](N=[N+]=[N-])[C@@H](CO)O2)c(=O)[nH]c1=O [AZT, azidothymidione, reference compound] |  |  |  |  | EC50 ([1]; Human immunodeficiency virus 1, IIIB, MT4, 120 h, read-out: ED50): < 0.008 µg/mL; SI ([1]; Selectivity Index, ratio of CD50 to ED50, HIV-1, 7200 min): >125; CC50 at 120 h [5]: > 1 µg/mL |
| silicotungstate acid, H₄SiW₁₂O₄₀ |  |  |  |  | activity against HIV [6]: has activity against HIV; toxicity in higher animals [7]: abandoned because of its toxicity in higher animals |
| K₅BW₁₂O₄₀ |  |  |  |  | activity against herpes virus [4]: have activity against herpes virus |
